Laboratory results taken from patent US12077503B2, “Substituted cyclic amides and their use as herbicides” (FMC CORPORATION, priority 2015, dated 2024).

Assays:
Assay type in all cases: in vivo
[1] = tested on: ragweed (common ragweed, Ambrosia elatior); assay: Test A preemergence; details: Ambrosia artemisiifolia, pre-emergence, 240 h, 0 to 100 scale where 0 is no effect and 100 is complete control, read-out: Ragweed plant response rating
In short: (§1)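 Visual injury scores from 0, no effect, to 100, complete control, were assigned versus untreated controls roughly 10 d after treatment in the greenhouse. Test chemicals, formulated with surfactant in a non-phytotoxic solvent, were applied to planted seeds as a preemergence soil spray or postemergence to one- to two-leaf plants 2 to 10 cm tall, in loam–sand soil.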

[2] = tested on: ryegrass, Italian (Italian ryegrass, Lolium multiflorum); assay: Test A preemergence; details: Lolium multiflorum, pre-emergence, 240 h, 0 to 100 scale where 0 is no effect and 100 is complete control, read-out: Ryegrass, Italian plant response rating
In short: as §1

Kochia (Kochia scoparia) [3] = assay: Test A preemergence; details: Bassia scoparia, pre-emergence, 240 h, 0 to 100 scale where 0 is no effect and 100 is complete control, read-out: Kochia plant response rating
In short: as §1

[4] = tested on: pigweed (Amaranthus retroflexus); assay: Test A preemergence; details: Amaranthus retroflexus, pre-emergence, 240 h, 0 to 100 scale where 0 is no effect and 100 is complete control, read-out: Pigweed plant response rating
[5] = tested on: giant foxtail (Setaria faberii); assay: Test A preemergence; details: Setaria faberi, pre-emergence, 240 h, 0 to 100 scale where 0 is no effect and 100 is complete control, read-out: Foxtail, Giant plant response rating
In short: as §1

[6] = tested on: barnyardgrass (Echinochloa crus-galli); assay: Test A preemergence; details: Echinochloa crus-galli, pre-emergence, 240 h, 0 to 100 scale where 0 is no effect and 100 is complete control, read-out: Barnyardgrass plant response rating
In short: as §1

[7] = tested on: ragweed (common ragweed, Ambrosia elatior); assay: Test A postemergence; details: Ambrosia artemisiifolia, post-emergence, 240 h, Postemergence, read-out: Ragweed plant response rating (0 to 100 scale)
In short: as §1

[8] = tested on: wheat (Triticum aestivum); assay: Test A postemergence; details: Triticum aestivum, post-emergence, 240 h, Postemergence, read-out: Wheat plant response rating (0 to 100 scale)
In short: as §1

[9] = tested on: Galium (catchweed bedstraw, Galium aparine); assay: Test A postemergence; details: Galium, post-emergence, 240 h, Postemergence, read-out: Galium plant response rating (0 to 100 scale)
In short: as §1

[10] = tested on: ryegrass, Italian (Italian ryegrass, Lolium multiflorum); assay: Test A postemergence; details: Lolium multiflorum, post-emergence, 240 h, Postemergence, read-out: Ryegrass, Italian plant response rating (0 to 100 scale)
In short: as §1

Kochia (Kochia scoparia) [11] = assay: Test A postemergence; details: Bassia scoparia, post-emergence, 240 h, Postemergence, read-out: Kochia plant response rating (0 to 100 scale)
In short: as §1

[12] = tested on: pigweed (Amaranthus retroflexus); assay: Test A postemergence; details: Amaranthus retroflexus, post-emergence, 240 h, Postemergence, read-out: Pigweed plant response rating (0 to 100 scale)
In short: as §1

[13] = tested on: giant foxtail (Setaria faberii); assay: Test A postemergence; details: Setaria faberi, post-emergence, 240 h, Postemergence, read-out: Foxtail, Giant plant response rating (0 to 100 scale)
In short: as §1

[14] = tested on: blackgrass (Alopecurus myosuroides); assay: Test A postemergence; details: Alopecurus myosuroides, post-emergence, 240 h, Postemergence, read-out: Blackgrass plant response rating (0 to 100 scale)
In short: as §1

corn (Zea mays) = assay: Test A postemergence; details: Zea mays, post-emergence, 240 h, Postemergence, read-out: Corn plant response rating (0 to 100 scale)
In short: as §1

[15] = tested on: barnyardgrass (Echinochloa crus-galli); assay: Test A postemergence; details: Echinochloa crus-galli, post-emergence, 240 h, Postemergence
In short: as §1

[16] = tested on: ducksalad (Heteranthera limosa); assay: Test B flooded paddy test; details: Heteranthera limosa, 250 g ai/ha, Flood; 0 to 100 scale where 0 is no effect and 100 is complete control; read-out: Ducksalad plant response rating
In short: (§2)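 Rating scale 0–100 (visual, vs untreated controls) after a 13–15 d greenhouse period; application to the flood layer, 3 cm above soil and maintained; plants at 2-leaf stage when treated.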

rice (Oryra sativa) = assay: Test B flooded paddy test; details: Oryza sativa, 250 g ai/ha, Flood; 0 to 100 scale where 0 is no effect and 100 is complete control; read-out: Rice plant response rating
In short: as §2

[17] = tested on: sedge, umbrella (small-flower umbrella sedge, Cyperus difformis); assay: Test B flooded paddy test; details: Cyperus difformis, 250 g ai/ha, Flood; 0 to 100 scale where 0 is no effect and 100 is complete control; read-out: Sedge, Umbrella plant response rating
In short: as §2

[18] = tested on: barnyardgrass (Echinochloa crus-galli); assay: Test B flooded paddy test; details: Echinochloa crus-galli, 250 g ai/ha, Flood; 0 to 100 scale where 0 is no effect and 100 is complete control; read-out: Barnyardgrass plant response rating
In short: as §2

[19] = 125 g ai/ha, preemergence, visual injury rating, approximately 10 d
[20] = 125 g ai/ha, visual rating about 10 d after treatment
[21] = 31 g ai/ha, 0 is no effect, 100 is complete control

O=C(Nc1ccccc1F)[C@H]1C(=O)N(CC(F)F)C[C@@H]1c1cccc(C(F)(F)F)c1 [Compound 1295]
pest or weed control at 31 g/ha ([1]; 31 g ai/ha, Preemergence): 0%
pest or weed control at 125 g/ha [1, 19]: 0%
pest or weed control at 31 g/ha ([2]; 31 g ai/ha, Preemergence): 0%
pest or weed control at 125 g/ha [2, 19]: 0%
pest or weed control at 31 g/ha (Kochia (Kochia scoparia) [3]; 31 g ai/ha, Preemergence): 0%
pest or weed control at 125 g/ha (Kochia (Kochia scoparia) [3]; [19]): 0%
pest or weed control at 31 g/ha ([4]; 31 g ai/ha, Preemergence): 0%
pest or weed control at 125 g/ha [4, 19]: 0%
pest or weed control at 31 g/ha ([5]; 31 g ai/ha, Preemergence): 0%
pest or weed control at 125 g/ha [5, 19]: 40%
pest or weed control at 31 g/ha ([6]; 31 g ai/ha, Preemergence): 0%
pest or weed control at 125 g/ha [6, 19]: 0%
pest or weed control at 125 g/ha [7, 20]: 0%
pest or weed control at 31 g/ha [7, 21]: 0%
plant injury at 125 g/ha [8, 20]: 0%
plant injury at 31 g/ha [8, 21]: 0%
pest or weed control at 125 g/ha [9, 20]: 0%
pest or weed control at 31 g/ha [9, 21]: 0%
pest or weed control at 125 g/ha [10, 20]: 0%
pest or weed control at 31 g/ha [10, 21]: 0%
pest or weed control at 125 g/ha (Kochia (Kochia scoparia) [11]; [20]): 0%
pest or weed control at 31 g/ha (Kochia (Kochia scoparia) [11]; [21]): 0%
pest or weed control at 125 g/ha [12, 20]: 0%
pest or weed control at 31 g/ha [12, 21]: 0%
pest or weed control at 125 g/ha [13, 20]: 0%
pest or weed control at 31 g/ha [13, 21]: 0%
pest or weed control at 125 g/ha [14, 20]: 0%
pest or weed control at 31 g/ha [14, 21]: 0%
plant injury at 125 g/ha (corn (Zea mays); [20]): 0%
plant injury at 31 g/ha (corn (Zea mays); [21]): 0%
pest or weed control at 125 g/ha ([15]; 125 g ai/ha, visual rating about 10 d after treatment, read-out: Barnyardgrass plant response rating (0 to 100 scale, 0 no effect, 100 complete control)): 0%
pest or weed control at 31 g/ha ([15]; 31 g ai/ha, 0 is no effect, 100 is complete control, read-out: Barnyardgrass plant response rating (0 to 100 scale)): 0%
pest or weed control at 250 g/ha [16]: 0%
pest or weed control at 250 g/ha (rice (Oryra sativa)): 0%
pest or weed control at 250 g/ha [17]: 0%
pest or weed control at 250 g/ha [18]: 0%
